Reference: patent US9133224B2, “Macrocyclic kinase inhibitors” (OSI Pharmaceuticals, LLC, priority 2010, dated 2015)

These molecules were tested against T1, GST-tagged full-length FAK enzyme (PTK2) (Homo sapiens, UniProt Q05397) (assay: Biochemical Omnia Assay (FAK)). Conditions: not given.
T1 construct: GST-tagged full-length FAK enzyme (PTK2, Invitrogen PV4085); GST; purchased Invitrogen PV4085
Protocol: Biochemical Omnia Assay Protocol
The Omnia Assay (Invitrogen) has been optimized for GST-tagged full-length FAK enzyme (PTK2, Invitrogen PV4085).
All compound concentrations were assayed in duplicate. Initial compound dilutions were prepared at 100× concentration in 100% DMSO from a 10 mM stock solution. Compounds were further diluted 1:25 in assay buffer resulting in a 4× concentrated solution.
In running the assay, 5 μL of the above 4× concentrated compound solution (or 4% DMSO for positive controls) was added to the assay plate followed by 5 μL of a solution containing peptide (40 μM) and ATP (200 μM) in assay buffer. The reaction was initiated by the addition of 10 μL of FAK (50 nM) in assay buffer, or assay buffer alone for negative controls. The increase in fluorescence due to peptide phosphorylation was monitored continuously as a function of time using a Spectramax M5 plate reader (Molecular Devices) equipped with SoftMax Pro 5.2 software.
IC50 values were determined from the slopes of the linear progress curves by non-linear curve-fitting using GraphPad Prism 5 (GraphPad Software, Inc.).

T1 sequence (Q05397 whole entry): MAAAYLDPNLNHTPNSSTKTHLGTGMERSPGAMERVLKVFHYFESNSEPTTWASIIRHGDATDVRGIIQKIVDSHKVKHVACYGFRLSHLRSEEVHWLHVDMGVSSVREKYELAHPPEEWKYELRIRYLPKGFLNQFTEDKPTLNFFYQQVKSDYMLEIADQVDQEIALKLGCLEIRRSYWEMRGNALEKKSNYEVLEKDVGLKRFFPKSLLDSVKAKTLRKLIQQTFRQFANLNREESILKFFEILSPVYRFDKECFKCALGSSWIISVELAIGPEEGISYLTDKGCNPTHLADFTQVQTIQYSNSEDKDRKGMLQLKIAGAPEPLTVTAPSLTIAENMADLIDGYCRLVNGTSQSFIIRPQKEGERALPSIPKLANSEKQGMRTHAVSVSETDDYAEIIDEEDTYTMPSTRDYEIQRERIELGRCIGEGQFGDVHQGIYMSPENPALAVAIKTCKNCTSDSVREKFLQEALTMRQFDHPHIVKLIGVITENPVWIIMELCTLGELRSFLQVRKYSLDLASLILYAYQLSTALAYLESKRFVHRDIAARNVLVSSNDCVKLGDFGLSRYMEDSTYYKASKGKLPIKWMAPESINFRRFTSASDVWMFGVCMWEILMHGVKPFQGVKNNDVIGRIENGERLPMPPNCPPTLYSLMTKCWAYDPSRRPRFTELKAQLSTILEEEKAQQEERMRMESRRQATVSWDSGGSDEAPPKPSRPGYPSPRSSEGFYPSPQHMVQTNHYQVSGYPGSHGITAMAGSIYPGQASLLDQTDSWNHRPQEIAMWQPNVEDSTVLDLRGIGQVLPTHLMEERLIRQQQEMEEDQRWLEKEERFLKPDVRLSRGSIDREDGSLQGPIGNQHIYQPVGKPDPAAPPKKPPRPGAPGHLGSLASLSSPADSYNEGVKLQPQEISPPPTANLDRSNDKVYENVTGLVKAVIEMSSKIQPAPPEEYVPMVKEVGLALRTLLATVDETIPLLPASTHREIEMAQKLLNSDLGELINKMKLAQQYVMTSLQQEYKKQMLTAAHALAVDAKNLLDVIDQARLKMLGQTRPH

Structure (SMILES)	IC50
CCOP1(=O)Cc2ccc(c(OC)c2)Nc2ncc(C(F)(F)F)c(n2)Nc2ccc(c(F)c2C(=O)NC)-c2cnn(c2)CCCO1 (racemic) [Example 27]	< 400 nM
CCOP1(=O)Cc2ccc(c(OC)c2)Nc2ncc(C(F)(F)F)c(n2)Nc2ccc(c(Cl)c2C(=O)NC)-c2cnn(c2)CCCO1 (racemic) [Example 28]	< 400 nM
CCOP1(=O)Cc2ccc(c(OC)c2)Nc2ncc(C(F)(F)F)c(n2)Nc2ccc(c(C)c2C(=O)NC)-c2cnn(c2)CCCO1 (racemic) [Example 29]	< 400 nM
CCOP1(=O)Cc2ccc(c(OC)c2)Nc2ncc(C(F)(F)F)c(n2)Nc2ccc(c(OC)c2C(=O)NC)-c2cnn(c2)CCCO1 (racemic) [Example 30]	< 400 nM
CCOP1(=O)Cc2ccc(c(OC)c2)Nc2ncc(C(F)(F)F)c(n2)Nc2cc(F)c(c3c2C(=O)N(C)C3)-c2cnn(c2)CCCO1 (racemic) [Example 31]	< 400 nM
CCOP1(=O)Cc2ccc(c(C)c2)Nc2ncc(C(F)(F)F)c(n2)Nc2ccc(nc2C(=O)NC)-c2cnn(c2)CCCO1 (racemic) [Example 33]	< 400 nM
CCOP1(=O)Cc2ccc(c(OC)c2)Nc2cc(c(C(F)(F)F)cn2)Nc2ccc(nc2C(=O)NC)-c2cnn(c2)CCCO1 (racemic) [Example 36]	< 400 nM
CCOP1(=O)Cc2ccc(c(OC)c2)Nc2ncc(C(F)(F)F)c(n2)Nc2ccc(nc2C(=O)NC)-c2cc(C(=O)O)n(c2)CCCO1 (racemic) [Example 39]	< 400 nM
CCOP1(=O)Cc2ccc(c(OC)c2)Nc2ncc(C(F)(F)F)c(n2)Nc2ccc(nc2C(=O)NC)-c2cc(C(=O)N3CC(C)(O)C3)n(c2)CCCO1 (racemic) [Example 40]	< 400 nM
CCOP1(=O)Cc2ccc(c(OC)c2)Nc2ncc(C(F)(F)F)c(n2)Nc2ccc(nc2C(=O)NC)-c2cc(C(=O)N(C)C)n(c2)CCCO1 (racemic) [Example 41]	< 400 nM
CCOP1(=O)Cc2ccc(c(OC)c2)Nc2ncc(C(F)(F)F)c(n2)Nc2ccc(nc2C(=O)NC)-c2cc(C(=O)NC)n(c2)CCCO1 (racemic) [Example 42]	< 400 nM
CCOP1(=O)Cc2ccc(c(OC)c2)Nc2ncc(C(F)(F)F)c(n2)Nc2ccc(nc2C(=O)NC)-c2cnn(c2)CC2(COC2)CO1 (racemic) [Example 44]	< 400 nM
CCNC(=O)c1nc2ccc1Nc1nc(ncc1C(F)(F)F)Nc1ccc(cc1OC)CP(=O)(OCC)OCC1(COC1)Cn1cc-2cn1 (racemic) [Example 45]	< 400 nM
CCOP1(=O)Cc2ccc(c(OC)c2)Nc2ncc(C(F)(F)F)c(n2)Nc2ccc(nc2C(=O)NOC)-c2cnn(c2)CCCO1 (racemic) [Example 46]	< 400 nM

These molecules were tested against T2, FAK (Homo sapiens, UniProt Q05397) (assay: Cell-based capture ELISA for inhibition of FAK autophosphorylation [pY397] in U87MG cells). Conditions: 50% (v/v) human plasma, mean IC50, read-out: FAK Activity Mechanistic (U87MG) HP.
T2 construct: endogenous in cells; host or cells: U87MG glioblastoma cells (ATCC HTB-14)
Protocol: Cell-Based Assays for Inhibition of FAK Autophosphorylation: MiaPaCa2 and U87MG
The ability of compounds to inhibit FAK autophosphorylation was determined in a cell-based capture ELISA assay using U87MG glioblastoma cells (ATCC, Cat # HTB-14) and the FAK [pY397]ELISA kit from Invitrogen (KHO0441). The assay determines the ability of compounds to block endogenous autophosphorylation of FAK stimulated by fibronectin. Cells plated on fibronectin coated 96-well plate were incubated with compounds at various concentrations in the complete growth medium for 2 h. Cell lysates were then prepared and FAK protein was captured onto a FAK antibody-coated 96-well ELISA plate. The phosphotyrosine content of FAK protein was then monitored by quantitation of degree of binding of an antibody that recognizes only the phosphorylated FAK at Y397 within the captured protein.
Reagents Provided in Biosource FAK [pY397]
Cultures of U87MG cells growing in MEM (Earles) containing non-essential amino acids, sodium pyruvate (1 mM), […] (1%) and 10% fetal bovine serum were detached by trypsin-EDTA and suspended in cell growth medium. Cells were then plated onto fibronectin (600 ng/well)-coated 96-well flat bottom plates at 1.7×10^4 cells per well in 60 uL cell growth medium and incubated overnight at 37° C. in a CO2 incubator.
Compound dilutions were prepared from 10 mM DMSO stocks by dilution in cell growth medium, the final concentration of DMSO in the assay being 0.6%. […] The cells were then incubated with compounds at 37° C. for 2 h. The medium was removed by aspiration and cells were lysed by addition of 20 uL of ice-cold cell lysis buffer per well. The plates were kept on ice for 20 min and 50 uL of standard diluent was added to each well. 50 uL of cell lysate from each well was transferred to respective wells in an assay plate and 50 uL of detection antibody was added to all wells except H1-H6 which were no antibody control wells. Capture assay plates were incubated overnight in a cold room.
Following incubation of the cell lysates and detection antibodies in the ELISA plate, the wells were washed 4 times with 120 uL of wash buffer (1×), then 100 uL of diluted HRP conjugated antibody (1:100 dil in diluent) was added to each well, and the plate was incubated at RT for 30 min. The wells were then washed for 4 times with 120 uL of wash buffer (1×) and 100 uL of chromogen was added to each well and incubated in the dark at RT for 5-10 min. 100 uL of stop solution was added to each well and the absorbance measured at 450 nm, 0.1 s.
Comparison of the assay signals obtained in the presence of compound with those of positive and negative controls (cells with no compound and no detection antibody being added), allows degree of inhibition of phospho-FAK [Y397] to be determined over a range of compound concentrations. […] The assay as described above was modified to determine the effect of inclusion of 50% (v/v) mouse or human plasma. In this assay, the compound plate was prepared as 2× concentration in 100 uL of 100% mouse or human plasma, and 60 uL of this was added to 60 uL of culture medium and incubated at 37° C. incubator for 2 h. The rest of the assay was carried out as described above.

T2 sequence (Q05397 whole entry): as above

Structure (SMILES)	IC50
CCOP1(=O)Cc2ccc(c(C)c2)Nc2ncc(C(F)(F)F)c(n2)Nc2ccc(nc2C(=O)NC)-c2cnn(c2)CCCO1 (racemic) [Example 33]	< 400 nM
CCOP1(=O)Cc2ccc(c(OC)c2)Nc2cc(c(C(F)(F)F)cn2)Nc2ccc(nc2C(=O)NC)-c2cnn(c2)CCCO1 (racemic) [Example 36]	< 400 nM
CCOP1(=O)Cc2ccc(c(OC)c2)Nc2ncc(C(F)(F)F)c(n2)Nc2ccc(nc2C(=O)NC)-c2cc(C(=O)N(C)C)n(c2)CCCO1 (racemic) [Example 41]	< 400 nM
CCOP1(=O)Cc2ccc(c(OC)c2)Nc2ncc(C(F)(F)F)c(n2)Nc2ccc(nc2C(=O)NC)-c2cc(C(=O)NC)n(c2)CCCO1 (racemic) [Example 42]	< 400 nM
CCOP1(=O)Cc2ccc(c(OC)c2)Nc2ncc(C(F)(F)F)c(n2)Nc2ccc(nc2C(=O)NC)-c2cnn(c2)CC2(COC2)CO1 (racemic) [Example 44]	< 400 nM
CCNC(=O)c1nc2ccc1Nc1nc(ncc1C(F)(F)F)Nc1ccc(cc1OC)CP(=O)(OCC)OCC1(COC1)Cn1cc-2cn1 (racemic) [Example 45]	< 400 nM
CCOP1(=O)Cc2ccc(c(OC)c2)Nc2ncc(C(F)(F)F)c(n2)Nc2ccc(nc2C(=O)NOC)-c2cnn(c2)CCCO1 (racemic) [Example 46]	< 400 nM

Same assay, conditions: 50% (v/v) mouse plasma, mean IC50, read-out: FAK Activity Mechanistic (U87MG) MP

Structure (SMILES)	IC50
CCOP1(=O)Cc2ccc(c(OC)c2)Nc2ncc(C(F)(F)F)c(n2)Nc2ccc(c(F)c2C(=O)NC)-c2cnn(c2)CCCO1 (racemic) [Example 27]	400 to 4000 nM
CCOP1(=O)Cc2ccc(c(OC)c2)Nc2ncc(C(F)(F)F)c(n2)Nc2ccc(c(Cl)c2C(=O)NC)-c2cnn(c2)CCCO1 (racemic) [Example 28]	> 4000 nM
CCOP1(=O)Cc2ccc(c(OC)c2)Nc2ncc(C(F)(F)F)c(n2)Nc2ccc(c(C)c2C(=O)NC)-c2cnn(c2)CCCO1 (racemic) [Example 29]	> 4000 nM
CCOP1(=O)Cc2ccc(c(OC)c2)Nc2ncc(C(F)(F)F)c(n2)Nc2ccc(c(OC)c2C(=O)NC)-c2cnn(c2)CCCO1 (racemic) [Example 30]	400 to 4000 nM
CCOP1(=O)Cc2ccc(c(OC)c2)Nc2cc(c(C(F)(F)F)cn2)Nc2ccc(nc2C(=O)NC)-c2cnn(c2)CCCO1 (racemic) [Example 36]	400 to 4000 nM
CCOP1(=O)Cc2ccc(c(OC)c2)Nc2ncc(C(F)(F)F)c(n2)Nc2ccc(nc2C(=O)NOC)-c2cnn(c2)CCCO1 (racemic) [Example 46]	400 to 4000 nM

Same assay, conditions: FAK Activity Mechanistic (U87MG) MP, 50% (v/v) mouse plasma, mean IC50

Structure (SMILES)	IC50
CCOP1(=O)Cc2ccc(c(OC)c2)Nc2ncc(C(F)(F)F)c(n2)Nc2ccc(nc2C(=O)NC)-c2cc(C(=O)O)n(c2)CCCO1 (racemic) [Example 39]	> 4000 nM
CCOP1(=O)Cc2ccc(c(OC)c2)Nc2ncc(C(F)(F)F)c(n2)Nc2ccc(nc2C(=O)NC)-c2cc(C(=O)N3CC(C)(O)C3)n(c2)CCCO1 (racemic) [Example 40]	400 to 4000 nM
CCOP1(=O)Cc2ccc(c(OC)c2)Nc2ncc(C(F)(F)F)c(n2)Nc2ccc(nc2C(=O)NC)-c2cc(C(=O)NC)n(c2)CCCO1 (racemic) [Example 42]	400 to 4000 nM

Same assay, conditions: no plasma present, mean IC50, read-out: FAK Activity Mechanistic (U87MG) NP

Structure (SMILES)	IC50
CCOP1(=O)Cc2ccc(c(OC)c2)Nc2ncc(C(F)(F)F)c(n2)Nc2ccc(c(F)c2C(=O)NC)-c2cnn(c2)CCCO1 (racemic) [Example 27]	< 400 nM
CCOP1(=O)Cc2ccc(c(OC)c2)Nc2ncc(C(F)(F)F)c(n2)Nc2ccc(c(Cl)c2C(=O)NC)-c2cnn(c2)CCCO1 (racemic) [Example 28]	400 to 4000 nM
CCOP1(=O)Cc2ccc(c(OC)c2)Nc2ncc(C(F)(F)F)c(n2)Nc2ccc(c(C)c2C(=O)NC)-c2cnn(c2)CCCO1 (racemic) [Example 29]	400 to 4000 nM
CCOP1(=O)Cc2ccc(c(OC)c2)Nc2ncc(C(F)(F)F)c(n2)Nc2ccc(c(OC)c2C(=O)NC)-c2cnn(c2)CCCO1 (racemic) [Example 30]	< 400 nM
CCOP1(=O)Cc2ccc(c(OC)c2)Nc2ncc(C(F)(F)F)c(n2)Nc2cc(F)c(c3c2C(=O)N(C)C3)-c2cnn(c2)CCCO1 (racemic) [Example 31]	< 400 nM
CCOP1(=O)Cc2ccc(c(C)c2)Nc2ncc(C(F)(F)F)c(n2)Nc2ccc(nc2C(=O)NC)-c2cnn(c2)CCCO1 (racemic) [Example 33]	< 400 nM
CCOP1(=O)Cc2ccc(c(OC)c2)Nc2cc(c(C(F)(F)F)cn2)Nc2ccc(nc2C(=O)NC)-c2cnn(c2)CCCO1 (racemic) [Example 36]	< 400 nM
CCOP1(=O)Cc2ccc(c(OC)c2)Nc2ncc(C(F)(F)F)c(n2)Nc2ccc(nc2C(=O)NC)-c2cc(C(=O)O)n(c2)CCCO1 (racemic) [Example 39]	400 to 4000 nM
CCOP1(=O)Cc2ccc(c(OC)c2)Nc2ncc(C(F)(F)F)c(n2)Nc2ccc(nc2C(=O)NC)-c2cc(C(=O)N3CC(C)(O)C3)n(c2)CCCO1 (racemic) [Example 40]	< 400 nM
CCOP1(=O)Cc2ccc(c(OC)c2)Nc2ncc(C(F)(F)F)c(n2)Nc2ccc(nc2C(=O)NC)-c2cc(C(=O)N(C)C)n(c2)CCCO1 (racemic) [Example 41]	< 400 nM
CCOP1(=O)Cc2ccc(c(OC)c2)Nc2ncc(C(F)(F)F)c(n2)Nc2ccc(nc2C(=O)NC)-c2cc(C(=O)NC)n(c2)CCCO1 (racemic) [Example 42]	< 400 nM
CCOP1(=O)Cc2ccc(c(OC)c2)Nc2ncc(C(F)(F)F)c(n2)Nc2ccc(nc2C(=O)NC)-c2cnn(c2)CC2(COC2)CO1 (racemic) [Example 44]	< 400 nM
CCNC(=O)c1nc2ccc1Nc1nc(ncc1C(F)(F)F)Nc1ccc(cc1OC)CP(=O)(OCC)OCC1(COC1)Cn1cc-2cn1 (racemic) [Example 45]	< 400 nM
CCOP1(=O)Cc2ccc(c(OC)c2)Nc2ncc(C(F)(F)F)c(n2)Nc2ccc(nc2C(=O)NOC)-c2cnn(c2)CCCO1 (racemic) [Example 46]	< 400 nM
